Measured values taken from a melting point compilation (Tetko et al.).

SMILES	melting point [°C]
COc1ccc(N)cc1S(=O)(=O)Nc1ccc(Cl)cc1	105 to 107
O=S(=O)(Cl)c1cncc(F)c1	35 to 37
CC1(c2ccc(N)cc2)NC(=O)NC1=O (centres undefined)	187 to 189
Cc1n[nH]c(C)c1S(=O)(=O)N(C)Cc1ccco1	160 to 163
CCOc1cc(C(=O)O)ccn1	171 to 173
CN1CC(=O)Nc2cc(C(=O)O)ccc21	322 to 324
CC(C)(C)OC(=O)Oc1ccc(N)cc1	112 to 114
CC(C)C1(C)CC(=O)NC1=O (centres undefined)	78 to 80
NC(COC1CCOCC1)=NO	79 to 81
Cn1cnc([N+](=O)[O-])c1S(=O)(=O)Cl	100 to 102
CC(Sc1ccccn1)C(=O)O (centres undefined)	70 to 72
CCNC(=O)NC1(C(=O)O)CCCC1	142 to 144
CCOc1ccc(C2(C(=O)O)CC2)cc1	118 to 120
CC(C)c1cnc(S)n1C	124 to 126
COc1ccc2c(c1)C(=O)CCN2	114 to 116
C=CCN(CC(=O)O)S(=O)(=O)c1ccc(Cl)cc1	136 to 138
C=CCN(CC=C)C(=O)c1ccc(N)cc1	104 to 106
CCc1cc(O)nc(CCl)n1	125 to 127
CCC1C(=O)NCCN1C(N)=S (centres undefined)	216 to 218
Cc1nc2sc(C(=O)O)c(C)c2c(=O)[nH]1	388 to 390
Nc1cc(I)ccc1Cl	56 to 58
CC(C)(C)OC(=O)NCC1CCCCS1 (centres undefined)	70 to 72
O[C@@H]1CCNC1	15 to 17
O=C(O)CCC1NC(=O)N(c2ccc(Cl)c(Cl)c2)C1=O (centres undefined)	173 to 175
Nc1ccc2c(c1)oc1ccccc12	89 to 91

SMILES	melting point [°C]
CC(C)c1ccc(S(=O)(=O)NCCC(=O)O)cc1	195 to 205
Cn1cc(S(N)(=O)=O)c(N)n1	162 to 164
O=C(O)c1ccnc(OCC(F)(F)F)c1	109 to 111
CC(C)(C)CCS(N)(=O)=O	91 to 93
NS(=O)(=O)c1ccc(CCCl)cc1	178 to 180
Cc1cnc(=S)[nH]c1	239 to 241
Cc1ccc(S(=O)(=O)c2ccc(NN)cc2)cc1	173 to 175
CC(C)N1C(=O)CNC1=O	83 to 85
NC1=NN(c2c(Cl)cc(Cl)cc2Cl)C(=O)C1	218 to 220
CC(C)(C)OC(=O)NCCOc1ccc(N)cc1	73 to 75
FC(F)(F)c1nnc2ccc(Cl)nn12	69 to 71
O=C(O)c1cc2c([nH]c1=O)CCCCC2	247 to 249
Cn1c(C(=O)O)cc2cc(C(F)(F)F)ccc21	199 to 201
O=C1CCOc2cc3c(cc21)OCO3	96 to 98
O=C(O)c1ccc(C(F)F)cc1	205 to 207
O=Cc1cc2c(cc1O)OCO2	114 to 116
Cc1nn(CC(=O)O)c(C)c1/C=N/O	203 to 205
Cc1nc(CC(C)C)sc1C(=O)O	169 to 171
CCOc1ccc2c(c1)NC(=O)C2=O	226 to 228
O=C1Nc2cccc(Br)c2C1=O	229 to 231
CSCCC1NC(=O)NC1=O (centres undefined)	108 to 110
CC(=CC(=O)O)C(C)(C)C	83 to 85
N#CCc1c[nH]c2cc(Br)ccc12	112 to 114
C=CCNC(=O)NC(=O)C(C)Cl (centres undefined)	68 to 70
CCOc1cc(C=O)cc(Br)c1OCc1ccccc1	55 to 57

SMILES	melting point [°C]
CCC(=O)c1c(C)nn(C)c1C	50 to 52
Nc1ccc(-n2cccn2)nc1	97 to 99
CCOC(=O)c1sc(N)c(C(N)=O)c1C	197 to 199
Cc1ccc(CCC(=O)O)cc1Cl	84 to 86
O=C(O)CCOc1cc(Cl)ccc1Cl	145 to 147
Cc1cc(NC(=O)C(Br)C(C)C)no1 (centres undefined)	96 to 98
O=C(O)C1CC1c1ccc(Cl)c(Cl)c1 (centres undefined)	141 to 143
Cc1nn(Cc2ccc(Cl)cc2)c(C)c1C=O	71 to 73
CCCc1ccc(C(=O)COc2ccc(C=O)cc2OC)cc1	73 to 75
Cc1ccnn1-c1ccc(C(=O)O)cc1	243 to 245
Cn1c(=O)[nH]c(=O)c2ccc(C(=O)O)nc21	305 to 307
Cc1cc(S(=O)(=O)Cl)cc(C)c1F	88 to 90
CC(O)C(NC(=O)C1CC1)C(=O)O (centres undefined)	138 to 140
Cc1ccc(C(N)=S)o1	149 to 151
Cc1nc(-c2ccc(NC(=O)OCC(F)(F)F)cc2)cc(=O)[nH]1	246 to 248
O=C(O)CNC(=O)c1cc(Cl)ccn1	188 to 190
CC(C)(C)n1ncc(C(=O)O)c1C(F)(F)F	110 to 112
CC(C)CCC(=O)NCCCS(N)(=O)=O	90 to 92
Nc1nc2cc(F)c(F)cc2[nH]1	144 to 146
Cc1cc(Br)cc2c1NC(=O)C2	224 to 226
CC(=O)Nc1cccc(F)c1C(=O)O	202 to 204
CCCCc1ccc(C(=O)Nc2sccc2C(=O)O)cc1	183 to 185
CC(C)C(=O)CNC(=O)c1ccc([N+](=O)[O-])cc1	106 to 108
NC(=O)c1ccsc1NC(=O)CCCl	171 to 173
CC(C)(C)Oc1ncccc1O	86 to 88

SMILES	melting point [°C]
O=C(CCl)Nc1cc(Cl)ccc1C(=O)O	152 to 154
COc1ncc(Br)cn1	55 to 60
C#CCNS(=O)(=O)c1cccc(C(=O)O)c1	168 to 172
CCOC(=O)c1c(NC(=O)C(C)Cl)sc2c1CCC(C)C2 (centres undefined)	90 to 93
NC(=O)CCc1ccc(N)cc1	131 to 133
NCCC(=O)N1CCN(c2ncccn2)CC1	87 to 89
Nc1cc(=O)[nH]n1-c1ccc(F)cc1	202 to 204
O=C(O)c1cnc(O)cc1O	293 to 295
Nc1ccc(Oc2ccc(Cl)cc2)nc1	89 to 91
Ic1ccc(OCc2ccc3ncccc3c2)cc1	161 to 163
CC(=O)Nc1cncc(C(=O)NN)c1	229 to 231
O=C(O)c1ccc(CSc2ccc(Cl)cc2)cc1	182 to 184
O=C(CCl)NC(=O)NC1CCCCC1	102 to 105
O=C(O)c1cnn(-c2ncccc2Cl)c1C(F)(F)C(F)(F)F	141 to 143
COC(=O)c1n[nH]c2ccc(N)cc12	181 to 183
CCOC(=O)C(=O)c1cc(Br)ccc1OC	69 to 71
O=C(O)c1c[nH]c(=O)c(Br)c1	307 to 309
Cc1ccc(N)cc1S(=O)(=O)NC(C)(C)C	131 to 133
CC(C)(C)NS(=O)(=O)c1ccc(Cl)c(C(=O)O)c1	179 to 181
CCOC(=O)Cn1ncc2ccc(N)cc21	114 to 116
O=C(O)c1c(F)ccc(S(=O)(=O)Cl)c1F	107 to 111
CSc1ncc[nH]1	129 to 131

Continued, values first:

melting point [°C]	SMILES
83 to 85	Cc1cccc2c1OCC2=O
83 to 85	COC(=O)COc1ccc(N)c2ccccc12
192 to 194	Nc1ccc(CCN2CCOC2=O)cc1
157 to 159	NS(=O)(=O)c1cnn(Cc2ccccc2)c1
238 to 240	O=C(O)c1cc(C2CC2)nc2c1cnn2Cc1ccncc1
127 to 129	COc1ccccc1-c1csc(=O)[nH]1
109 to 111	CCOC(=O)c1c(Cl)nc2ccccc2c1C
162 to 164	O=C(O)COc1ccc(Cl)c2ccccc12
192 to 194	O=C(O)c1nc(-n2cnc3ccccc32)ccc1Cl
279 to 281	O=c1[nH]cnc2nc(NCc3ccco3)sc12
176 to 178	Cc1nn2c(nc(Cl)c3ccccc32)c1Cl
139 to 141	OCc1c(Cl)nc(Cl)n1-c1ccccc1
43 to 45	OCc1ccnc(-c2ccccc2)n1
190 to 192	O=C(O)c1cccc2c3c([nH]c12)CCCC3
168 to 170	O=C(O)c1ccccc1C(=O)c1ccc2c(c1)OCCO2
151 to 153	Nc1nnc(Cc2ccsc2)o1
165 to 167	CC(=O)NC(CC(=O)O)c1ccccc1 (centres undefined)
209 to 211	O=C(O)c1ccc2cc[nH]c2n1
223 to 225	Cc1ccc(F)cc1-c1nc2ccccc2[nH]1
156 to 158	Cc1ccccc1Cc1nn[nH]n1
253 to 255	O=C1CN=C(S)N1c1ccccc1
188 to 190	O=Cc1c[nH]nc1-c1ccc2c(c1)OCO2
222 to 224	CN1C(=O)CCC(C(N)=O)C1c1ccccc1 (centres undefined)
113 to 115	O=C(O)CSC(O)C(=O)c1ccccc1 (centres undefined)

melting point [°C]	SMILES
281 to 283	Cc1cccc2c(O)c(C(=O)O)cnc12
63 to 65	CC(C)C(Oc1ccccc1Br)C(=O)O (centres undefined)
99 to 101	Nc1ccc(CCn2nnc(-c3ccccc3)n2)cc1
238 to 240	O=c1ccn(C2CC2)c(S)n1
313 to 315	Cn1c(S)nc2cc(S(N)(=O)=O)ccc21
132 to 134	CC(C)COc1cn(-c2ccccc2)nc1C(=O)O
189 to 191	c1ccc(-c2nnc(-c3ccccc3)[nH]2)cc1
190 to 192	Cc1ccc(C(=O)NC(CC(=O)O)c2ccccc2)cc1 (centres undefined)
90 to 92	OCc1sc2ccccc2c1Cl
251 to 253	Cc1nc(-c2ccc(F)cc2)sc1C(=O)O
140 to 142	Nc1c(Cl)nc(-c2ccccc2)nc1Cl
67 to 69	OCCc1cc2cc(Br)ccc2o1
115 to 117	O=[N+]([O-])c1cccc(-c2nnc(CCl)o2)c1
157 to 159	O=C(O)C1CCCN(S(=O)(=O)c2ccc(Br)s2)C1 (centres undefined)
166 to 168	O=C(O)c1ccc(C2SCCS2)cc1
199 to 201	Cn1cc(C(=O)O)c(-c2ccc3c(c2)OCCCO3)n1
223 to 225	COc1ccc(CCn2c(S)nc3ccccc3c2=O)cc1OC
130 to 132	c1ccc2sc(NCC3CCCO3)nc2c1 (centres undefined)
86 to 88	NC(Cn1cnc2ccccc21)c1ccc(F)cc1 (centres undefined)
159 to 161	NC(Cc1nc2ccccc2s1)=NO
178 to 180	CC(C)NC(=O)Nc1ccccc1C(=O)O
129 to 131	O=C(O)C(Oc1ccc(Br)cc1Br)c1ccccc1 (centres undefined)
313 to 315	O=c1c2sc(-c3ccccc3)cc2nc(S)n1Cc1ccccc1
